Source: EP1580187A1, “Apoptogenic and antiproliferative analogs of ceramide” (Deigner, Hans-Peter, priority 2004, dated 2005)
Where two headings read alike, the source gives them in different places.

Experiments:
Assay type in all cases: cell-based
[1] = system: human adenocarcinoma cell line HT 29; assay: Induction of apoptosis (YOPRO-1 / Hoechst 33342 staining, count of apoptotic cells); details: HT 29 cells, mean (MW), spontaneous apoptosis rate 2.48 % ± 0.58, unit only printed
Description: (§1) Human colon carcinoma cells HT-29 were purchased from ATCC and cultivated under standard conditions (37°C, 5% CO2, McCoy 5A medium, 10% fetal calf serum, penicillin, streptomycin). For experimentation, cells were seeded in cell culture dishes at appropriate density, stimulated and analysed as described in the following section.
Apoptotic macrophages and colon carcinoma cells were identified by microscopic observation of typical morphological changes (blebbing, generation of apoptotic bodies) and quantitated by YOPRO-1 staining and Hoechst 33342 dye. The percentage of apoptotic cells was counted using a microscope fitted with mercury light source and fluorescence assembly in combination with a computer-assisted morphometry system. Apoptosis was confirmed by PARP cleavage detected by Western Blotting and single cell electrophoresis (COMET-assay).
(§2) Induction of apoptosis was determined in the human adenocarcinoma cell line HT 29 as described in Example 1; spontaneous apoptosis rate was 2.48 % ± 0.58. The activation of acidic sphingomyelinase (aSMase) was analyzed in the same cell line as described in Example 1, basal activity amounts to 278,4 pmolµg^-1min^-1 ± 41,3.

[2] = system: HT-29 colon carcinoma cells; assay: Proliferation (DNA synthesis, colorimetric BrdU-ELISA); details: Homo sapiens
Description: as §1
Quantitative determination of DNA synthesis in replicating cells was analyzed using commercial available test kits (colorimetric BrdU-ELISA, Roche-Diagnostics) according to the manufacturer's instructions. For these experiments, HT-29 colon carcinoma cells were seeded in 96-well plates at 40% confluence, cultivated overnight (1% FCS), incubated for 16 h with the test compounds (concentration range: three orders of magnitude), pulsed labelled with BrdU and fixed. The amount of incorporated BrdU was analysed using specific antibodies (Roche Diagnostics, Mannheim, Germany) and subsequent colorimetric reaction. The rate of DNA-synthesis in untreated control cells with standard medium was determined and compared with that in a medium contained the test compounds.
Semiconfluent HT-29 cells were incubated with compound 4 at concentration as indicated over night and DNA synthesis was analyzed on the basis of BrdU-incorporation and subsequent immunological quantification. Compound 4 inhibited cellular proliferative activity with an apparent IC50 of among 6,7 µM. […] Due to previous calculation using dependent variables over several orders of magnitudes, no standard deviation is given in Table 1 presenting the averaged half maximal concentrations for inhibition of proliferative activity.

[3] = target: T1, acidic sphingomyelinase (aSMase) (Homo sapiens, UniProt P17405); assay: SMase activity determination (activation of aSMase in cells, NBD-sphingomyelin hydrolysis); details: HT 29 cells, mean (MW), basal activity 278,4 ± 41,3, unit only printed
T1 construct: endogenous in cells; host or cells: HT 29 (human adenocarcinoma cell line)
T1 sequence (P17405 47-631): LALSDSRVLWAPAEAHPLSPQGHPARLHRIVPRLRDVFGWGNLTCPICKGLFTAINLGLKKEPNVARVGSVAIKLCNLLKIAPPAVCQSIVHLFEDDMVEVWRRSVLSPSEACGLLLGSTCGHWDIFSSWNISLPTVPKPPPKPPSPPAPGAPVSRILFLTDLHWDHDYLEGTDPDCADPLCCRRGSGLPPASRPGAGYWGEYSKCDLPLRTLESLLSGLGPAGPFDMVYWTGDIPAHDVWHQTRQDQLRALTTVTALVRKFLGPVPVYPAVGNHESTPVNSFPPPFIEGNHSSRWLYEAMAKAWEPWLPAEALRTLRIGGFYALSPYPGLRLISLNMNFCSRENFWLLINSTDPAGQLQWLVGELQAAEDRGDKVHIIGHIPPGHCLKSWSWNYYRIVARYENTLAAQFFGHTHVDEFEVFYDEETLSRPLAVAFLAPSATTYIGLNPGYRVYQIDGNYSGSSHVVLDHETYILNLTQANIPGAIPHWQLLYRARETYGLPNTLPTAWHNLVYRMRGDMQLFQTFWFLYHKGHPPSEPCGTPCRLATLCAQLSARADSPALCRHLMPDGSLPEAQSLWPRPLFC
Description: Activities of aSMase and nSMase were determined by hydrolysis of a fluorogenic C12-analogue substrate [(7-Nitro-2-1,3-benzoxadiazol-4-yl)amino-dodecyl-D-erythro-sphingosine, NBD-sphingomyelin, Molecular Probes, subsequent separation of the labelled NBD ceramide analog by thin layer chromatography and data analysis at conditions as described in detail previously.
as §2

[4] = HT-29 cells, BrdU incorporation, averaged half maximal concentrations, no standard deviation, read-out: Anti-Prolif. IC50
[5] = semiconfluent HT-29 cells, incubation over night, BrdU-incorporation, read-out: apparent IC50 / half maximal antiproliferative activity

| IC50 [2, 4] [µM] | IC50 [2, 5] [µM] | aSMase-activity 5 μM MW [3] | aSMase-activity 20 μM MW [3] | Compound | Induction of apoptosis 5 μM MW [1] | Induction of apoptosis 10 μM MW [1] | Induction of apoptosis 30 μM MW [1] |
| --- | --- | --- | --- | --- | --- | --- | --- |
| 4 | ~4 | 427,3 pmolµg^-1min^-1 | 743,4 pmolµg^-1min^-1 | CCCCCCCCCCCCC/C=C/[C@@H](O)[C@H](CO)NC(=O)CCCCC [Ceramide C6, reference compound] | 2,6% | 6,4% | 12,4% |
| 2.4 |  | 541,3 pmolµg^-1min^-1 | 631,0 pmolµg^-1min^-1 | CCCCCC(=O)N[C@@H](CO)[C@@H](O)c1ccc([N+](=O)[O-])cc1 [Compound 1, Hexanoic acid [(1S,2S)-2-hydroxy-1-hydroxymethyl-2-(4-nitrophenyl)-ethyl]-amide] | 1,3% | 8,4% | 8,9% |
| 4.6 |  | 347,0 pmolµg^-1min^-1 | 1185,4 pmolµg^-1min^-1 | CCCCCC(=O)N[C@@H](CO)[C@H](O)C1=CCCC1 [Compound 2, Hexanoic acid ((1S,2R)-2-cyclopent-1-enyl-2-hydroxy-1-hydroxymethyl-ethyl)-amide] | 15,7% | 4,9% | 5,9% |
| 3.1 |  | 403,8 pmolµg^-1min^-1 | 1108,4 pmolµg^-1min^-1 | CCCCCC(=O)N[C@@H](CO)[C@H](O)/C1=C/CCCCCC1 [Compound 3, Hexanoic acid [(1S,2R)-2-((E)-cyclooct-1-enyl)-2-hydroxy-1-hydroxymethyl-ethyl]-amide] | 2,9% | 7,4% | 5,7% |
| 6.7 | ~6.7 | 574,2 pmolµg^-1min^-1 | 812,7 pmolµg^-1min^-1 | CC(C)(C)OC(=O)N1[C@H]([C@H](O)C2=CCCC2)COC1(C)C [Compound 4, (S)-4-((R)-Cyclopent-1-enyl-hydroxy-methyl)-2,2-dimethyloxazolidine-3-carboxylic acid tert-butyl ester] | 3,95% | 8,5% | 10,2% |
| 3.2 |  | 447,3 pmolµg^-1min^-1 | 967,3 pmolµg^-1min^-1 | CC(C)(C)OC(=O)N1[C@H]([C@H](O)/C2=C/CCCCCC2)COC1(C)C [Compound 5, (S)-4-[(R)-((E)-Cyclooct-1-enyl)-hydroxy-methyl]-2,2-dimethyloxazolidine-3-carboxylic acid tert-butyl ester] | 6,4% | 7,7% | 9,2% |
